Laboratory results taken from patent publication US6492329B1, “Cytokine and hemopoietic factor endogenous production enhancer and methods of use thereof” (Novelos Therapeutics, Inc., priority 1995, dated 2002).

How the values were obtained:
[1] = test system: leukemia L1210 cells; assay: Leukemia L1210 in mice: serum cytokines, ascitic fluid, survival (Example 5); details: for Accumulation of ascitic fluid (weight gain) / Concentration in serum: IFNα / Concentration in serum: IL-1 / Concentration in serum: IL-2 / Concentration in serum: IL-6 / Concentration in serum: TNFα: L1210 mice
Procedure: (§6) An influence of 7 day course of test article daily administration was studied in respect of variations of serum cytokine levels (IL-1, IL-2, IL-6, IFNα, TNF). In parallel, the tumor progression was estimated using the two integral indices: pace of mouse weight gain due to accumulation of ascitic fluid, and by animal mean survival time after inoculation.
(§7) The study was carried out on DBA/2 mice weighing 18-21 g. First, tumor cell passage was performed using 6 animals for each cell line. For this, cells kept at the temperature of the liquid nitrogen were de-frozen and adjusted to the concentration of 5×10^6 cells/mL by sterile Hanks' solution. Then, 6 mice were intraperitoneally inoculated with 0.2 mL of each line cellular suspension.
(§8) Ascitic fluid was collected 6 days after the inoculation with L1210 cells and 8 days after the inoculation with P388 ones. Thus obtained, the samples of passaged tumor cells were used for the main experiments. The fluid liquid was dissolved by sterile Hanks' solution so that cell concentration be 5×10^6 cells/mL for P388 cells and 5×10^5 cells/mL for L1210 cells.
(§9) Nine groups of animals with no less than 15 mice each were formed for experiments with either tumor cell line. Mice were inoculated with 0.2 mL of resultant cell suspensions per mouse (10^6 P388 cells/mouse, and 10^5 L1210 cells/mouse). 24 hours after the tumor cells inoculation. animals were given the first injections of the test articles or vehicles. The test article injections were made daily till the 14th day of the experiment or until the animal's death. The volume of solutions injected comprised 0.01 mL/g body weight.
(§10) #1—intact animals receiving imitation of tumor cell inoculation (injection of normal saline) which further were treated with normal saline throughout the entire experiment;
(§11) #2—control animals, inoculated with tumor cells, which further were treated with test article vehicle (normal saline);

[2] = test system: Erlich adenocarcinoma cells; assay: Erlich adenocarcinoma in mice: ascitic fluid and survival (Example 14); details: for Accumulation of ascitic (weight gain, %): Erlich adenocarcinoma
[3] = test system: leukemia P388 cells; assay: Leukemia P388 in mice: serum cytokines, ascitic fluid, survival (Example 5); details: for Accumulation of ascitic fluid (weight gain) / Concentration in serum: IFNα / Concentration in serum: IL-1 / Concentration in serum: IL-2 / Concentration in serum: IL-6 / Concentration in serum: TNFα: P388 mice
Procedure: as §6, §7, §8, §9, §10, §11

[4] = test system: rat embrional fibroblasts (REF) after UV-irradiation; assay: Number of REF cells after UV-irradiation; format: cell-based
Procedure: (§1) To this end, these substances had been incubated for 72 hours with cells of rat embrional fibroblasts (REF) and the same cells, transformed with adenoviral E1A gene in complementation with ras-oncogene (e-ras cell line). Subsequent evaluation of the cellularity of experimental samples was carried out by counting the quantity of cell per milliliter (for REF cell line) or clones in dish (for e-ras cell line).
(§2) Cells were cultivated on DMEM medium supplemented with 10% fetal calf serum and […] gentamicin. Cultivation was carried out in Petri dishes.
(§3) REF cells was cultivated with initial density of 800 000 cell per mL, evaluation of the cellularity was performed at 0, 24, 48 and 72 hours of incubation with the test articles.
(§4) For the test-system for estimation of apoptosis regulation UV-induced cell death was triggered in a dose of 4 Dj. Test articles were added immediately after irradiation. Then, the quantity of cell per milliliter (for REF cell line) or clones in dish (for e-ras cell line) were monitored every 24 hours. For determination of DNA-fragmentation the electrophoresis in agarose gel was used at standard settings.

[5] = test system: leukemia P388 cells; assay: Leukemia P388 in mice: ascitic fluid and survival (Example 14); details: for Accumulation of ascitic (weight gain, %): leukemia P388
[6] = test system: leukemia L1210 cells; assay: Leukemia L1210 in mice: ascitic fluid and survival (Example 14); details: for Accumulation of ascitic (weight gain, %): leukemia L1210
Procedure: An influence of 7 day course of test article daily administration was studied in respect of tumor progression, which was estimated using the two integral indices: pace of mouse weight gain due to accumulation of ascitic fluid, and by animal mean survival time after inoculation.
The study was carried out on DBA/2 mice weighing 18-21 g. First, tumor cell passage was performed using 6 animals for each cell line. For this, cells kept at the temperature of the liquid nitrogen were de-frozen and adjusted to the concentration of 5×10^6 cells/mL by sterile Hanks' solution. Then, 6 mice were intra peritoneally inoculated with 0.2 mL of each line cellular suspension.
Ascitic fluid was collected 6 days after the inoculation with L1210 cells, 8 days after the inoculation with P388 ones and 18 days after inoculation with Erlich adenocarcinoma cells. Thus obtained, the samples of passaged tumor cells were used for the main experiments. The fluid liquid was dissolved by sterile Hanks' solution so that cell concentration be 5×10^6 cells/mL for P388 cells and Erlich adenocarcinoma cells, 5×10^5 cells/mL for L1210 cells.
Eleven groups of animals with no less than 15 mice each were formed for experiments with either tumor cell line. Mice were inoculated with 0.2 mL of resultant cell suspensions per mouse (10^6 P388 and Erlich adenocarcinoma cells/mouse, and 10^5 L1210 cells/mouse). 24 hours after the tumor cells inoculation, animals were given the first injections of the test articles or vehicles. The test article injections were made daily till the 14th day of the experiment or till the animal death. The volume of solutions injected comprised 0.01 mL/g body weight.
as §10, §11

[7] = test system: normal human lymphocytes; assay: Proliferation/apoptosis of normal human lymphocytes (cell number per well, flow cytofluorometry); format: cell-based
[8] = test system: HL-60 cells; assay: Proliferation/apoptosis of HL-60 tumor cells (cell number per well, flow cytofluorometry)
Procedure: Subsequent evaluation of the cell cycle parameters was carried out by the flow cytofluorometry technique.
A mononuclear fraction of blood leukocytes were obtained by centrifugation in gradient of fikoll-metrizoat (Histopaque, Sigma). […] Cell viability was estimated by the Trypan blue exclusion method, then the cell suspension was placed into wells of 96-well microtiter plates—200,000 cells per well. […] Cultivation was carried out in closed flasks, the medium volume was 12 mL, it was changed every four days by centrifugation. The nature of the cells growth was suspensive. […] 50 μL of each test solution were added to one or the other cell culture and thereafter cells were cultivated for 24-96 hours. Then, they were tested by the flow cytofluorometry to estimate DNA content in the cell nuclei. In case of apoptosis-like cellular death, the portion of cell nuclei with normal content of DNA became reduced, while the portion of cell nuclei containing abnormally small DNA quantity became larger.
The analysis procedure was the following: after incubation completion, cells were centrifuged and transferred to a standard phosphate isotonic buffer pH 7.4, containing RNA-ase A (20 μg/mL), ethidium bromide (fluorometric indicator for double stranded nucleic acid. 10 μg/mL) and MgCl2 (5 mM). After the cells were disintegrated by nonionic detergent Triton X-100 (final concentration 0.1%). The suspension of cell nuclei thus obtained was analyzed by flow cytofluorometry with an argon laser as a source of light (wave length 488 nm). The red fluorescence due to DNA bound ethidium bromide was taken to be the measure of DNA content in the cell nuclei.

[9] = test system: e-ras cells after UV-irradiation; assay: Number of clones of e-ras cells after UV-irradiation; format: cell-based, rat
Procedure: as §1, §2
(§5) E-ras cells were seeded at a cell density of 300 cells per 5 cm dish. 7 days after growth of e-ras cells had been started the quantity of clones was evaluated and the test articles were added into the dishes.
as §4

[10] = test system: e-ras cell line (REF transformed with E1A and ras-oncogene); assay: Number of clones of e-ras cells throughout 72-hr incubation; format: cell-based, rat
Procedure: as §1, §2, §5, §4

[11] = test system: rat embrional fibroblasts (REF); assay: Number of REF cells throughout 72-hr incubation; format: cell-based
Procedure: as §1, §2, §3, §4

## O=c1[nH]cnc2c1ncn2[C@@H]1O[C@H](CO)[C@@H](O)[C@H]1O [0.1% inosine, hypoxanthine-9-D-ribofuranoside]
[1]; 0 injections
  Accumulation of ascitic fluid (weight gain): 0.61%
  Concentration in serum: IFNα: 117.3 pg/mL
  Concentration in serum: IL-1: 41.0 pg/mL
  Concentration in serum: IL-2: 17.80 pg/mL
  Concentration in serum: IL-6: 108. pg/mL
  Concentration in serum: TNFα: 104.3 pg/mL
[1]; 3 daily injections
  Accumulation of ascitic fluid (weight gain): 7.02%
  Concentration in serum: IFNα: 160.0 pg/mL
  Concentration in serum: IL-1: 55.6 pg/mL
  Concentration in serum: IL-2: 22.3 pg/mL
  Concentration in serum: IL-6: 91.0 pg/mL
  Concentration in serum: TNFα: 130.0 pg/mL
[1]; 7 daily injections
  Accumulation of ascitic fluid (weight gain): 26.30%
  Concentration in serum: IFNα: 205. pg/mL
  Concentration in serum: IL-1: 36.40 pg/mL
  Concentration in serum: IL-2: 14.6 pg/mL
  Concentration in serum: IL-6: 119. pg/mL
  Concentration in serum: TNFα: 157.0 pg/mL
[1]; mice inoculated with leukemia L1210 cells, daily injections till day 14 or death
  Mean survival time: 9.61 ± 0.18
[2]; number of injection 0
  Accumulation of ascitic (weight gain, %): 0.8 ± 0.2%
[2]; number of injection 3
  Accumulation of ascitic (weight gain, %): 11.9 ± 0.2%
[2]; number of injection 7
  Accumulation of ascitic (weight gain, %): 26.8 ± 2.1%
[2]; mice inoculated with Erlich adenocarcinoma cells
  Mean survival time: 10.1 ± 0.6
[3]; 0 injections
  Accumulation of ascitic fluid (weight gain): 0.58 ± 0.13%
  Concentration in serum: IFNα: 81.4 ± 6.13 pg/mL
  Concentration in serum: IL-1: 36.7 ± 5.12 pg/mL
  Concentration in serum: IL-2: 16.50 ± 1.09 pg/mL
  Concentration in serum: IL-6: 115.0 ± 12.5 pg/mL
  Concentration in serum: TNFα: 122.0 ± 10.0 pg/mL
[3]; 3 daily injections
  Accumulation of ascitic fluid (weight gain): 6.8 ± 0.8%
  Concentration in serum: IFNα: 105. ± 11.3 pg/mL
  Concentration in serum: IL-1: 48.2 ± 7.13 pg/mL
  Concentration in serum: IL-2: 20.19 ± 1.54 pg/mL
  Concentration in serum: IL-6: 90.0 ± 7.11 pg/mL
  Concentration in serum: TNFα: 96.5 ± 8.7 pg/mL
[3]; 7 daily injections
  Accumulation of ascitic fluid (weight gain): 25.0 ± 2.22%
  Concentration in serum: IFNα: 184. ± 16.1 pg/mL
  Concentration in serum: IL-1: 31.0 ± 5.12 pg/mL
  Concentration in serum: IL-2: 13.40 ± 1.68 pg/mL
  Concentration in serum: IL-6: 129.0 ± 10.4 pg/mL
  Concentration in serum: TNFα: 144.8 ± 12.9 pg/mL
[3]; mice inoculated with leukemia P388 cells, daily injections till day 14 or death
  Mean survival time: 9.8 ± 0.21
[4]; 0 hours
  number of REF cells after UV-irradiation (M ± m): 811 ± 10 × 10^3 cells
[4]; 24 hours
  number of REF cells after UV-irradiation (M ± m): 426 ± 24 × 10^3 cells
[4]; 48 hours
  number of REF cells after UV-irradiation (M ± m): 262 ± 22 × 10^3 cells
[4]; 72 hours
  number of REF cells after UV-irradiation (M ± m): 234 ± 28 × 10^3 cells
[5]; number of injection 0
  Accumulation of ascitic (weight gain, %): 0.5 ± 0.2%
[5]; number of injection 3
  Accumulation of ascitic (weight gain, %): 3.9 ± 0.4%
[5]; number of injection 7
  Accumulation of ascitic (weight gain, %): 16.6 ± 2.6%
[5]; mice inoculated with leukemia P388 cells
  Mean survival time: 21.8 ± 0.6
[6]; number of injection 0
  Accumulation of ascitic (weight gain, %): 0.56 ± 0.2%
[6]; number of injection 3
  Accumulation of ascitic (weight gain, %): 7.9 ± 0.4%
[6]; number of injection 7
  Accumulation of ascitic (weight gain, %): 26.6 ± 2.4%
[6]; mice inoculated with leukemia L1210 cells
  Mean survival time: 9.8 ± 0.6
[7]; 24 hours incubation
  number of normal lymphocytes per well: 26 ± 4 × 10^4 cells
[7]; 48 hours incubation
  number of normal lymphocytes per well: 78 ± 7 × 10^4 cells
[7]; 72 hours incubation
  number of normal lymphocytes per well: 141 ± 12 × 10^4 cells
[7]; 96 hours incubation
  number of normal lymphocytes per well: 216 ± 16 × 10^4 cells
[8]; 24 hours incubation
  number of HL-60 cells per well: 96 ± 8 × 10^4 cells
[8]; 48 hours incubation
  number of HL-60 cells per well: 152 ± 8 × 10^4 cells
[8]; 72 hours incubation
  number of HL-60 cells per well: 312 ± 21 × 10^4 cells
[8]; 96 hours incubation
  number of HL-60 cells per well: 527 ± 18 × 10^4 cells
[9]; 0 hours
  number of clones of e-ras cells after UV-irradiation (M ± m): 292 ± 11
[9]; 24 hours
  number of clones of e-ras cells after UV-irradiation (M ± m): 190 ± 8
[9]; 48 hours
  number of clones of e-ras cells after UV-irradiation (M ± m): 129 ± 8
[9]; 72 hours
  number of clones of e-ras cells after UV-irradiation (M ± m): 93 ± 8
[10]; 0 hours of incubation
  number of clones of e-ras cells (M ± m): 292 ± 11
[10]; 24 hours of incubation
  number of clones of e-ras cells (M ± m): 290 ± 8
[10]; 48 hours of incubation
  number of clones of e-ras cells (M ± m): 269 ± 8
[10]; 72 hours of incubation
  number of clones of e-ras cells (M ± m): 243 ± 8
[11]; 0 hours of incubation
  number of REF cells (M ± m): 811 ± 10 × 10^3 cells
[11]; 24 hours of incubation
  number of REF cells (M ± m): 1426 ± 24 × 10^3 cells
[11]; 48 hours of incubation
  number of REF cells (M ± m): 2642 ± 25 × 10^3 cells
[11]; 72 hours of incubation
  number of REF cells (M ± m): 5034 ± 128 × 10^3 cells
